Laboratory results from patent publication US20090221505A1, “COMPOSITIONS AND METHODS RELATED TO SYNCHRONOUS SELECTION OF HOMING PEPTIDES FOR MULTIPLE TISSUES BY IN VIVO PHAGE DISPLAY” (priority 2004, published 2009).
“Also recorded” adds a separate entry of the source. Where no end group is shown, it is not given here.

Legend:
[1] = test system: COS-1 cells transfected with PRLR; assay: Immunofluorescence of phage binding and internalization into COS-1 cells transfected with PRLR; format: cell-based; details: 10^9 TU phage
Description: (§1) Immunolocalization Immunofluorescent detection of PRLR expression in COS-1 cells was performed by using anti-PRLR antibody MAI-610 (Affinity Bioreagents) diluted to 20 μg/ml and a secondary FITC-conjugated goat anti-mouse antibody F-0257 (Sigma) at 1 100 dilution. For validating phage binding and internalization into COS-1 cells transfected with PRLR, 10^9 TU of phage displaying PRLR-binding or mutant peptides were subjected to cell binding and internalization as described (Zurita et al, 2004). Immunodetection of cell-associated phage was performed with anti-fd antibody B-7786 (Sigma) at 1 500 dilution and a secondary Cy3-conjugated donkey anti-rabbit antibody 711-165-152 (Jackson) at 3 μg/ml. For phage-peptide immunolocalization in situ, 10^10 TU of iv-injected phage were let circulate for 5 min. Immunohistochemistry on formalin-fixed, paraffin-embedded mouse tissue sections was performed as described (Paqualini et al, 2001, Arap et al, 2002) by using anti-fd antibody B-7786 at 1 1,000 dilution and the LSAB+ peroxidase kit (DAKO)

[2] = test system: COS-1 cells transfected with PRLR; assay: Phage binding to COS-1 cells transfected with PRLR (BRASIL); format: cell-based; details: for Binding of phage to PRLR-transfected COS-1 cells (in words) / Isolation by biopanning on cell-surface expressed PRLR: BRASIL; for Binding of phage to PRLR-transfected COS-1 cells (in words): FIG. 5A-5B; for Isolation by biopanning on cell-surface expressed PRLR: pancreas-homing phage pool (rounds 2 and 3), single round
Description: (§2) Phage-peptide binding to PRLR To identify peptides binding to PRLR, phage clones isolated from the pancreas in rounds 2 and 3 of the screening were individually amplified and pooled. For panning on immobilized PRLR, 10^9 TU of the mixed phage clones were incubated overnight at 4° C. with […] of purified recombinant rabbit PRLR (Protein Laboratories Rehovot, Israel), or BSA control, immobilized on plastic. Unbound phage were extensively washed off with PBS, and then the bound phage were recovered by infecting host K91 E. coli directly on the plate. For panning on cell surface-expressed PRLR, COS-1 cells (ATCC) were transiently transfected with pECE-PRLR as described (Wang et al, 1997) and subjected to biopanning with the amplified pancreas-isolated phage using the BRASIL protocol (Giordano et al, 2001). In each biopanning, bound phage were selected for tetracycline resistance, quantified by infecting host K91 E. coli and sequenced. […] Phage displaying forward (CRVASVLPC) (SEQ ID NO 30), reverse CPLVSAVRC(SEQ ID NO 34), and the alanine point mutants were titered in-parallel with insertless fd-tet phage and tested for binding to COS-1 cells transfected with PRLR by using the BRASIL method (Giordano et al, 2001). COS-1 cells not transfected with PRLR served as a negative control.

Pancreas = assay: Anti-phage immunohistochemistry after iv phage injection, pancreas; format: in vivo, mouse
Description: as §1

skeletal muscle = assay: Anti-phage immunohistochemistry after iv phage injection, skeletal muscle; format: in vivo, mouse
Description: as §1

[3] = molecular target: T1, purified recombinant rabbit PRLR (Oryctolagus cuniculus, UniProt P14787); assay: Panning of pancreas-homing phage on immobilized PRLR (BSA control); format: binding; details: pancreas-homing phage pool (rounds 2 and 3), single round
T1 construct: purchased Protein Laboratories Rehovot, Israel
T1 sequence (P14787 25-234 limits assumed): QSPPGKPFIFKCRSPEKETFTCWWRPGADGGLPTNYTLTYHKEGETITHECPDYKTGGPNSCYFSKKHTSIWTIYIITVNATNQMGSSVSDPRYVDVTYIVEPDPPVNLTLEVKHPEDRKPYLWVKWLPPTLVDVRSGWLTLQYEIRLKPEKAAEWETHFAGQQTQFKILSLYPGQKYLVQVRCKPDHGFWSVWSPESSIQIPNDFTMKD
Description: as §2

[4] = molecular target: PRLR (prolactin receptor) expressed on the surface of COS-1 cells transfected with pECE-PRLR; assay: phage binding to PRLR-transfected COS-1 cells, BRASIL
Sequence of PRLR (prolactin receptor) expressed on the surface of COS-1 cells transfected with pECE-PRLR (P05710 20-610): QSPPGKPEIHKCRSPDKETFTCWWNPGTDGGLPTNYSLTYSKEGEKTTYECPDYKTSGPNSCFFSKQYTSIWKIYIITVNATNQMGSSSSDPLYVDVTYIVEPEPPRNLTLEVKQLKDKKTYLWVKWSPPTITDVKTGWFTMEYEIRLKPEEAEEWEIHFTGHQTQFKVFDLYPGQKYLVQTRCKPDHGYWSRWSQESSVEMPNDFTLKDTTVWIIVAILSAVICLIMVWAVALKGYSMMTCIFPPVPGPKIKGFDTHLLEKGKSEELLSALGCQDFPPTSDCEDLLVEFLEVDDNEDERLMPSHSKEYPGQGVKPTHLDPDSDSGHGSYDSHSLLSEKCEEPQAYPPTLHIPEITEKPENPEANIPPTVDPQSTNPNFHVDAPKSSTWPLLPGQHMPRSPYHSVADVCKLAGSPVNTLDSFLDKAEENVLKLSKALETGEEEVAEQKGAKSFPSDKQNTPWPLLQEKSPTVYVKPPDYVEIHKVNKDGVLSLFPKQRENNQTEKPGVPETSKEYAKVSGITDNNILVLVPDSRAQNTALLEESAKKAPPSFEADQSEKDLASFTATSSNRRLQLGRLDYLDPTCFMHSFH

[5] = molecular target: PRLR (prolactin receptor) expressed on the surface of COS-1 cells transfected with pECE-PRLR; assay: phage binding to prlR-transfected COS-1 cells

CPLVSAVRC
Phage binding, internalization and co-localization with PRLR-expressing cells [1]: bound and internalized specifically by cells expressing PRLR
Binding of phage to PRLR-transfected COS-1 cells (in words) [2]: did not significantly decrease its binding to PRLR

CRVASVLPC [tested as phage clone]
Phage binding, internalization and co-localization with PRLR-expressing cells [1]: co-localized; also recorded: bound and internalized specifically by cells expressing PRLR
Phage localization in pancreas (Pancreas): localized to pancreatic blood vessels and the islets of Langerhans; also recorded: to pancreatic blood vessels and the pancreatic islet cells
Phage localization in skeletal muscle (skeletal muscle): but not to skeletal muscle
Binding of phage to PRLR-transfected COS-1 cells (in words) [2]: Specific binding
Binding of phage to COS-1 cells transfected with prlR relative to background binding by controls ([2]; controls: muscle-homing phage or insertless phage): five
Binding of phage to COS-1 cells transfected with PRLR relative to nonspecific binding to non-transfected COS-1 cells ([2]; negative control: non-transfected COS-1 cells, FIG. 5A): 9 fold

CYAIGSFDC (phage-displayed) [control muscle-homing phage clone displaying …]
Phage localization in pancreas (Pancreas): but not in the pancreas
Phage localization in skeletal muscle (skeletal muscle): found predominantly in the vasculature of skeletal muscle; also recorded: found predominantly in the vasculature of the skeletal muscle

LPTLSLN (not fully specified)
Isolation by biopanning on in vitro immobilized PRLR [3]: isolated by biopanning on both in vitro immobilized and cell-surface expressed PRLR
Isolation by biopanning on cell-surface expressed PRLR [2]: isolated by biopanning on both in vitro immobilized and cell-surface expressed PRLR

QVHSSAY (not fully specified)
Isolation by biopanning on in vitro immobilized PRLR [3]: isolated by biopanning on both in vitro immobilized and cell-surface expressed PRLR
Isolation by biopanning on cell-surface expressed PRLR [2]: isolated by biopanning on both in vitro immobilized and cell-surface expressed PRLR

SGATGRA (not fully specified)
Isolation by biopanning on in vitro immobilized PRLR [3]: isolated by biopanning on both in vitro immobilized and cell-surface expressed PRLR
Isolation by biopanning on cell-surface expressed PRLR [2]: isolated by biopanning on both in vitro immobilized and cell-surface expressed PRLR

SGPTGRA (not fully specified)
Isolation by biopanning on in vitro immobilized PRLR [3]: isolated by biopanning on both in vitro immobilized and cell-surface expressed PRLR
Isolation by biopanning on cell-surface expressed PRLR [2]: isolated by biopanning on both in vitro immobilized and cell-surface expressed PRLR

VFSDYKR (not fully specified)
Isolation by biopanning on in vitro immobilized PRLR [3]: isolated by biopanning on both in vitro immobilized and cell-surface expressed PRLR
Isolation by biopanning on cell-surface expressed PRLR [2]: isolated by biopanning on both in vitro immobilized and cell-surface expressed PRLR

B1: …-phage (phage displaying the … motif, SEQ ID NO 30) (peptide, part only; not given: phage coat protein, part only)
peptide, part: CRVASVLPC
modifications: not fully specified (bridges); cysteine pairing not given here; also: displayed on filamentous phage (fUSE5)
fold binding over non-transfected COS-1 cells [4]: 9 fold
fold binding over control phage (muscle-homing or insertless) [5]: 5 fold
